From patent publication US11142531B2, “Cyano substituted heteroarylpyrimidinone derivative, preparation method and use thereof” (ZHEJIANG HISUN PHARMACEUTICAL CO., LTD., priority 2017, dated 2021)

Assays:
recombinant human ACC1 = recombinant human ACC1 (Homo sapiens (Human), UniProt Q13085); assay: Inhibition of enzymatic activity of ACC1 (ADP-Glo chemiluminescence); assay type: biochemical; details: recombinant human ACC1 protein 2 nM, ATP 20 μM, acetyl-CoA 10 μM, NaHCO3 30 mM
Method: (§1) The degree of inhibition of the enzymatic activity of recombinant human ACC1, ACC2 proteins under in-vitro conditions by the preferred compounds of the present disclosure is determined by the following method.
The principle of the method was based on the reaction of ACC protein-catalyzed acetyl-CoA to form malonyl-CoA. ATP was consumed during this reaction and ADP was produced. The produced ADP was reconverted into ATP by using ADP-Glo™ Kinase Kit from Promega. This part of ATP reacted with the luciferase-fluorescence in the kit, and generated chemiluminescent signals. Thus, by measuring the intensity of chemiluminescent signal, the amount of ADP produced in the catalytic reaction was reflected, thereby indirectly determining the enzymatic activity of ACC protein and the effect of the tested compound on the enzymatic activity. The main reagents used included ACC1, ACC2 proteins (purchased from BPS bioscience, ACC1 Art. No. 50200, ACC2 Art. No. 50201), acetyl-CoA (acetyl-CoA, purchased from Sigma, Art. No. A2056), NaHCO3 (purchased from Sigma, Art. No. S6014), ADP-Glo™ Kinase assay kit (purchased from Promega, Art. No. V9102).
The test procedure was briefly described as follows: firstly, a 1× buffer solution required for the reaction was prepared, comprising: 50 mM HEPES (pH7.4 purchased from Invitrogen, Art. No. 15630), 2 mM magnesium chloride (MgCl2, purchased from Sigma, Art. No. M1028), 2 mM potassium citrate (Potassium citrate, purchased from Sigma, Art. No. 89306), 0.01% Brij-35 detergent (purchased from Merck, Art. No. 203728), 2 mM DTT (purchased from Sigma, Art. No. D0632). The test compound powder was dissolved in DMSO to prepare a stock solution having a concentration of 10 mM, followed by three-fold dilution to prepare the concentration required for the test, and each compound was set at 10 concentration points ranging from 10 μm to 0.5 nM. Firstly, appropriate amount of ACC protein (2 nM) was added to a 384-well microplate, and then diluted test compound solutions were added to each well. A duplicate well was provided at each concentration, and a solution control group (blank group) and a negative control group (DMSO group) were set at the same time. The 384-well plates were then shaken on a microwell plate oscillator and incubated for 15 minutes at room temperature. Thereafter, a substrate mixture containing ATP, acetyl-CoA and NaHCO3 which was diluted with the aforementioned buffer solution was added to each well to start the reaction, and the final concentrations of the three components were respectively ATP 20 μM, acetyl-CoA 10 μM, and NaHCO3 30 mM. After reacting for 30 minutes at room temperature, the corresponding reaction solution and detection solution were added to each well according to the method in the specification of ADP-Glo™ Kinase assay kit (referring to the specification of the kit for specific methods). Finally, the relative light unit (RLU) values of each well were tested using an Envision 2104 multi-function microplate reader (Perkin Elmer). The percentage inhibition rate of a compound at a concentration on ACC enzyme activity was calculated by the following formula: Inhibition rate %=[(RLU average value of negative control wells−RLU average value of blank control wells)−(RLU average values of test wells−RLU average values of blank control wells)]/(RLU average values of negative control wells−RLU average values of blank control wells)*100
Finally, nonlinear regression analysis of the logarithm of the concentration of the compound and the percentage inhibition rate of the corresponding concentration was carried out in the GraphPad Prism5 software to obtain the half maximal inhibitory concentration (IC50) of the compound.

[1] = Oral pharmacokinetic research in SD rats (plasma and liver, LC/MS/MS); assay type: in vivo; details: male, Sprague-Dawley (SD), rat, intragastric, 10 mg/kg
Method: SD rat was used as the experimental animal. The drug concentrations in plasma and liver at different times were tested after the rats were intragastrically administered with the compound of Example 19 by LC/MS/MS methods, so as to research the pharmacokinetic characteristics of compound of present disclosure in rats.
An appropriate amount of experimental drug was weighed, and 0.5% sodium carboxymethylcellulose (CMC-Na) was added, and the mixture was milled to prepare a 1 mg/mL suspension;
6 healthy adult male rats were divided into 2 groups, fasted overnight and respectively intragastrically administered with the drug at a dosage of 10 mg/kg, at a volume of 10 mL/kg. The rats were feed 2 h after the administration.
Blood was collected by jugular vein puncture, and about 0.25 mL was collected for each sample, which was anticoagulated by using heparin sodium, and the samples were placed on ice after collection. The time points of blood collection were as follows:
The first group of animals: blood collection time: before administration, and 0.083 h, 0.25 h, 0.5 h, 1 h, 2 h, 4 h, 6 h, 8 h and 24 h after administration.
The second group of animals: the animals were euthanized 0.5 h after administration, and the liver tissues were collected, 3 rats/time point.
Blood samples were collected and placed on ice, and plasma was separated by centrifugation (centrifugation conditions: 8000 rpm, 6 min, 2-8° C.). The collected plasma was stored at −80° C. before analysis.
The content of the test compound in the plasma and liver of the rats after intragastrically administration was analyzed by LC-MS/MS.

recombinant human ACC2 = recombinant human ACC2 (Homo sapiens (Human), UniProt O00763); assay: Inhibition of enzymatic activity of ACC2 (ADP-Glo chemiluminescence); assay type: biochemical; details: recombinant human ACC2 protein 2 nM, ATP 20 μM, acetyl-CoA 10 μM, NaHCO3 30 mM
Chain of recombinant human ACC2 (O00763 whole entry): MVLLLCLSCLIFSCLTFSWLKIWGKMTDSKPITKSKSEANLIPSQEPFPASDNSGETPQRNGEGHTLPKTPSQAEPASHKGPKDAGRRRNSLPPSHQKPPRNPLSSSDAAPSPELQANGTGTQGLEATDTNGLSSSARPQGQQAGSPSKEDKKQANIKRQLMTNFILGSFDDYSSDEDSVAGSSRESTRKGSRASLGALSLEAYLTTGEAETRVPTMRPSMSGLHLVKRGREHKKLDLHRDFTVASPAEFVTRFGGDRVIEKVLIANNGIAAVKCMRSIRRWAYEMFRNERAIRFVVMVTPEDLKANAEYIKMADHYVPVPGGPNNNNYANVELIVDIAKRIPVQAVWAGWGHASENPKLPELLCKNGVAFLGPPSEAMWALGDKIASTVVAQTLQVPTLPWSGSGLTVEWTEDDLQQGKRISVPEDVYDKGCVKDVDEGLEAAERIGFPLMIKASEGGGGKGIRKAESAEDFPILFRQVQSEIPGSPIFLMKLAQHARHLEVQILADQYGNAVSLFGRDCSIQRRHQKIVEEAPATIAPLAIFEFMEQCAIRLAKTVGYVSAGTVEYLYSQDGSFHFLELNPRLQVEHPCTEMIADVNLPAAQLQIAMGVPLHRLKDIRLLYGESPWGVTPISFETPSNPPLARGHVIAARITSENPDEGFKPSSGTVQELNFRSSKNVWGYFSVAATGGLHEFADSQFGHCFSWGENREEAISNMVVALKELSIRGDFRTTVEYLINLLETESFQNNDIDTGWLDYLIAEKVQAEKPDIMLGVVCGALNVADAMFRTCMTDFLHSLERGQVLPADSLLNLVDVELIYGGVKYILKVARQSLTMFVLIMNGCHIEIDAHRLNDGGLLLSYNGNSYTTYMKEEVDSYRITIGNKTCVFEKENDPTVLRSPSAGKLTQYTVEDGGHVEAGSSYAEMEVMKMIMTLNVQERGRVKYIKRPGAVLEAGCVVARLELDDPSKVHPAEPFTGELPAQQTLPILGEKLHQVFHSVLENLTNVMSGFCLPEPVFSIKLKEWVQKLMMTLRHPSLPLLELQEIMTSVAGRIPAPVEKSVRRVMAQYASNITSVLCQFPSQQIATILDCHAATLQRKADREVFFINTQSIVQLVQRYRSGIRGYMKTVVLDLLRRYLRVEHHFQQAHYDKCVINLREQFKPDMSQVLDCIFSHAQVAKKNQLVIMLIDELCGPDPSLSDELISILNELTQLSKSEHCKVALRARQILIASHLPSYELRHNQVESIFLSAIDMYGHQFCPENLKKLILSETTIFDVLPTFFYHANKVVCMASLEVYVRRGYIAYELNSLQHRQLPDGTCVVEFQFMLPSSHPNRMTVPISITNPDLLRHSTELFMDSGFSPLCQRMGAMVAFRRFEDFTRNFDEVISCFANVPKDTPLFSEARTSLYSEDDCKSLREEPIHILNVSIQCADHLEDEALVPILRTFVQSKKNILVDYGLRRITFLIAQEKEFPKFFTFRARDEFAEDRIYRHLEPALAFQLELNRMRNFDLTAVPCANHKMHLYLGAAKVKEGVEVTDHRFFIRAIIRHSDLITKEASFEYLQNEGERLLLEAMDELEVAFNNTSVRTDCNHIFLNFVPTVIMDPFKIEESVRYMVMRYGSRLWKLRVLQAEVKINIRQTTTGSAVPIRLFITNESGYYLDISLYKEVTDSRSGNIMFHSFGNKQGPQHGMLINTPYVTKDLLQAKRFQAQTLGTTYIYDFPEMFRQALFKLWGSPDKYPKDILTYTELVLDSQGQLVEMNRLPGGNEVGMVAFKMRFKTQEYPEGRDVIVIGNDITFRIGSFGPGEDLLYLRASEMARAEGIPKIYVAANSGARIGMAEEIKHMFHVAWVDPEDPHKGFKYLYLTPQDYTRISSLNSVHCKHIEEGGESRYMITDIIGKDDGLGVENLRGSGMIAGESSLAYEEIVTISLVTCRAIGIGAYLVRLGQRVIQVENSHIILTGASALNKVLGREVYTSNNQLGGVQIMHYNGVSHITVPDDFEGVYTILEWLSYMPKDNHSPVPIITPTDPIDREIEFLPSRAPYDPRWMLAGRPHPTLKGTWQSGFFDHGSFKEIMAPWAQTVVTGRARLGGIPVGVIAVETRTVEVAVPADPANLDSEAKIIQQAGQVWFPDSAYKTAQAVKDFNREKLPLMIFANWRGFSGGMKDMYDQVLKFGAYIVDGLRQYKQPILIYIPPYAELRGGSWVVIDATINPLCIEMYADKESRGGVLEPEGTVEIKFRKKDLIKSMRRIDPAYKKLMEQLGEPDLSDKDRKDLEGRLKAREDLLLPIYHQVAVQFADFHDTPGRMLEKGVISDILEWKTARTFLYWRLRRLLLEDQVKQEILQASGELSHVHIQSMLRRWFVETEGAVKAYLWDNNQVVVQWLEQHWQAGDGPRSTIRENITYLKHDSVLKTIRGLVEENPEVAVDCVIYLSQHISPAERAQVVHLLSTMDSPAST
Method: as §1
The principle of the method was based on the reaction of ACC protein-catalyzed acetyl-CoA to form malonyl-CoA. ATP was consumed during this reaction and ADP was produced. The produced ADP was reconverted into ATP by using ADP-Glo™ Kinase Kit from Promega. This part of ATP reacted with the luciferase-fluorescence in the kit, and generated chemiluminescent signals. […]
The test procedure was briefly described as follows: firstly, a 1× buffer solution required for the reaction was prepared, comprising: 50 mM HEPES (pH7.4 purchased from Invitrogen, Art. No. 15630), 2 mM magnesium chloride (MgCl2, purchased from Sigma, Art. No. M1028), 2 mM potassium citrate (Potassium citrate, purchased from Sigma, Art. No. 89306), 0.01% Brij-35 detergent (purchased from Merck, Art. No. 203728), 2 mM DTT (purchased from Sigma, Art. No. D0632). […] Finally, the relative light unit (RLU) values of each well were tested using an Envision 2104 multi-function microplate reader (Perkin Elmer). […]

Row | Compound | IC50 (recombinant human ACC1) | other results
1 | COc1ccccc1C(Cn1c(=O)n(C(C)(C)C(=O)O)c(=O)c2c(C)c(C#N)sc21)OC1CCOCC1 (stereo not shown) [Example 1, 2-(6-Cyano-1-(2-(2-methoxyphenyl)-2-((tetrahydro-2H-pyran-4-yl)oxy)ethyl)-5-methyl-2,4-dioxo-1,2-dihydrothiopheno[2,3-d]pyrimidin-3(4H)-yl)-2-methylpropionic acid] | 38 nM | 
2 | COc1ccccc1[C@@H](Cn1c(=O)n(C(C)(C)C(=O)O)c(=O)c2c(C)c(C#N)sc21)OC1CCOCC1 [Example 2, (S)-2-(6-Cyano-1-(2-(2-methoxyphenyl)-2-((tetrahydro-2H-pyran-4-yl)oxy)ethyl)-5-methyl-2,4-dioxo-1,2-dihydrothiopheno[2,3-d]pyrimidin-3(4H)-yl)-2-methylpropionic acid] | 16 nM | 
3 | COc1ccccc1[C@H](Cn1c(=O)n(C(C)(C)C(=O)O)c(=O)c2c(C)c(C#N)sc21)OC1CCOCC1 [Example 3, (R)-2-(6-cyano-1-(2-(2-methoxyphenyl)-2-((tetrahydro-2H-pyran-4-yl)oxy)ethyl)-5-methyl-2,4-dioxo-1,2-dihydrothiopheno[2,3-d]pyrimidin-3(4H)-yl)-2-methylpropionic acid] | 11.6 nM | 
4 | COc1ccc(F)cc1C(Cn1c(=O)n(C(C)(C)C(=O)O)c(=O)c2c(C)c(C#N)sc21)OC1CCOCC1 (stereo not shown) [Example 4, 2-(6-Cyano-1-(2-(5-fluoro-2-methoxyphenyl)-2-((tetrahydro-2H-pyran-4-yl)oxy)ethyl)-5-methyl-2,4-dioxo-1,2-dihydrothiopheno[2,3-d]pyrimidin-3(4H)-yl)-2-methylpropionic acid] | 16.5 nM | 
5 | CCOc1ccccc1C(Cn1c(=O)n(C(C)(C)C(=O)O)c(=O)c2c(C)c(C#N)sc21)OC1CCOCC1 (stereo not shown) [Example 6, 2-(6-Cyano-1-(2-(2-ethoxyphenyl)-2-((tetrahydro-2H-pyran-4-yl)oxy)ethyl)-5-methyl-2,4-dioxo-1,2-dihydrothiopheno[2,3-d]pyrimidin-3(4H)-yl)-2-methylpropionic acid] | 21 nM | 
6 | COc1ccc(F)cc1[C@H](Cn1c(=O)n(C(C)(C)C(=O)O)c(=O)c2c(C)c(C#N)sc21)OC1CCOCC1 [Example 11, (R)-2-(6-Cyano-1-(2-(5-fluoro-2-methoxyphenyl)-2-((tetrahydro-2H-pyran-4-yl)oxy)ethyl)-5-methyl-2,4-dioxo-1,2-dihydrothiopheno[2,3-d]pyrimidin-3(4H)-yl)-2-methylpropionic acid] | 15 nM | 
7 | Cc1c(C#N)sc2c1c(=O)n(C(C)(C)C(=O)O)c(=O)n2CC(OC1CCOCC1)c1ccccc1OCC1CC1 (stereo not shown) [Example 13, 2-(6-Cyano-1-(2-(2-(cyclopropylmethoxy)phenyl)-2-((tetrahydro-2H-pyran-4-yl)oxy)ethyl)-5-methyl-2,4-dioxo-1,2-dihydrothiopheno[2,3-d]pyrimidin-3(4H)-yl)-2-methylpropionic acid] | 36 nM | 
8 | Cc1c(C#N)sc2c1c(=O)n(C(C)(C)C(=O)O)c(=O)n2CC(OC1CCOCC1)c1cc(F)ccc1OCCF (stereo not shown) [Example 14, 2-(6-Cyano-1-(2-(5-fluoro-2-(2-fluoroethoxy)phenyl)-2-((tetrahydro-2H-pyran-4-yl)oxy)ethyl)-5-methyl-2,4-dioxo-1,2-dihydrothiopheno[2,3-d]pyrimidin-3(4H)-yl)-2-methylpropionic acid] | 7.9 nM | 
9 | CCOc1ccc(F)cc1C(Cn1c(=O)n(C(C)(C)C(=O)O)c(=O)c2c(C)c(C#N)sc21)OC1CCOCC1 (stereo not shown) [Example 15, 2-(6-Cyano-1-(2-(2-ethoxy-5-fluorophenyl)-2-((tetrahydro-2H-pyran-4-yl)oxy)ethyl)-5-methyl-2,4-dioxo-1,2-dihydrothiopheno[2,3-d]pyrimidin-3(4H)-yl)-2-methylpropionic acid] | 4.4 nM | 
10 | Cc1c(C#N)sc2c1c(=O)n(C(C)(C)C(=O)O)c(=O)n2CC(OC1CCOCC1)c1cc(F)ccc1OCC#N (stereo not shown) [Example 17, 2-(6-Cyano-1-(2-(2-(cyanomethoxy)-5-fluorophenyl)-2-((tetrahydro-2H-pyran-4-yl)oxy)ethyl)-5-methyl-2,4-dioxo-1,2-dihydrothiopheno[2,3-d]pyrimidin-3(4H)-yl)-2-methylpropionic acid] | 20.7 nM | 
11 | CCOc1ccc(F)cc1[C@H](Cn1c(=O)n(C(C)(C)C(=O)O)c(=O)c2c(C)c(C#N)sc21)OC1CCOCC1 [Example 19, (R)-2-(6-cyano-1-(2-(2-ethoxy-5-fluorophenyl)-2-((tetrahydro-2H-pyran-4-yl)oxy)ethyl)-5-methyl-2,4-dioxo-1,2-dihydrothiopheno[2,3-d]pyrimidin-3(4H)-yl)-2-methylpropionic acid] | 2.7 nM | concentration at 0.5 h ([1]; oral, liver, 0.5 h after administration, read-out: drug concentration in the liver): 46800 ± 14000 ng/mL; Cmax ([1]; po, plasma, read-out: Blood concentration Cmax): 920 ± 362 ng/mL; AUC(0-inf) ([1]; po, plasma, read-out: Curve area AUC0-∞): 1940 ± 1190 ng·h/mL; half-life ([1]; po, plasma, read-out: Half-life period T½ (converted)): 3.39 ± 0.65 h; MRT ([1]; po, plasma, read-out: Residence time MRT): 2.82 ± 0.34 h; IC50 (recombinant human ACC2): 6 nM
12 | Cc1c(C#N)sc2c1c(=O)n(C(C)(C)C(=O)O)c(=O)n2C[C@H](OC1CCOCC1)c1cc(F)ccc1OCCF [Example 21, (R)-2-(6-cyano-1-(2-(5-fluoro-2-(2-fluoroethoxy)phenyl)-2-((tetrahydro-2H-pyran-4-yl)oxy)ethyl)-5-methyl-2,4-dioxo-1,2-dihydrothiopheno[2,3-d]pyrimidin-3(4H)-yl)-2-methylpropionic acid] | 6.4 nM | IC50 (recombinant human ACC2): 22 nM
